In patent US8729107B2, “Pyridines for treating injured mammalian nerve tissue” (Purdue Research Foundation, priority 2002, dated 2014):
Like-named read-outs stand apart in the source and are kept apart here.

Legend:
[1] = system: injured guinea pig spinal cord white matter; details: for increase in the amplitude of the recovered CAP: pre-drug recovered CAP normalized to 100%; for CAP amplitude after removal of the drug and wash: FIG. 8 electrical records, after washout; for concentration producing recovery of CAP conduction (effective/working concentration): drug added to bathing medium of central chamber; for CAP relative to pre-drug level: at the concentrations studied
[2] = system: guinea pigs with compression injury to the mid-thoracic spinal cord; format: in vivo; details: for effective dosage producing improvement in the electrophysiological record: gavage; for Mean recovered EP (area beneath recovered EP normalized to pre-injury): gavage at 1 week post injury, Table 1; for tolerability of gavage: oral insertion in sedated guinea pigs; for failures to respond: by 4 hours after gavage
Text: “Somatosensory evoked potential testing (SSEP)” is a means of measuring ascending nerve impulse “traffic” in a “whole” animal. […] These volleys of evoked potentials are initiated by electrical stimulation of the tibial nerve of the hind leg of an animal, which induces ascending sensory volleys of nociceptive impulses to the contralateral sensory cortex of the brain in the intact animal. A severe spinal cord injury eliminates the ability of evoked potentials to cross the lesion and thus SSEPs are not recorded at the brain after lesioning. Quantitative evaluation of the recovery of SSEP conduction through the whole animal provides a more relevant indicator of the feasibility of these compounds to be useful in reversing behavioral loss after specific, localized, and standardized CNS injury. To eliminate the possibility that the failure to record SSEPs could be due to other factors, a control recording is carried out using the median nerve of the foreleg. Since this neural circuit is completely intact (that is—“above” the level of the spinal injury) normal SSEPs must be obtained after such “control” stimulation. FIG. 2 is a diagram of this testing protocol and provides examples of normal recordings in intact animals, the elimination of sensory impulses after a mid-thoracic spinal cord injury, and explains these issues in detail, as well as, emphasizing the importance of a median nerve control procedure.
During live animal testing using guinea pigs, novel pyridine derivatives of the instant invention were administered through a gastric tube to large adult guinea pigs which had previously received a standardized compression injury to their mid-thoracic spinal cords. The ability of these compounds to restore conduction in this second technique was determined by a quantitative evaluation of SSEPs. The following protocols and routes of administration were employed.
Prior to spinal cord injury, fully adult guinea pigs (Hardy strain, around 400 g) were lightly sedated with an intramuscular injection of Ketamine/Rompum and rendered immobile during the placement of stimulation and recording electrodes as illustrated in FIG. 2. A series of SSEP records were then taken subsequent to both tibial and median nerve stimulation in this normal animal. It should be noted here that all surgical procedures and physiological recordings were carried out on anesthetized animals. All animal studies were carried out under protocols approved by the University Animal Care and Use Committee, under strict adherence to University, State, and Federal guidelines for the use of animals in research.
Subsequently, a dorsal laminectomy surgical procedure was carried out exposing the dorsal (posterior) region of the mid-thoracic spinal cord within the vertebral column, the tough covering of the spinal cord (the dura) incised and removed, and the cord crushed by a standardized technique (constant displacement compression. Blight A R (1991a), Morphometric analysis of a model of spinal cord injury in guinea pigs, with behavioral evidence of delayed secondary pathology, J Neurol Sci 103:156-171; Borgens R B, Shi R, Bohnert D (2002), Behavioral recovery from spinal cord injury following delayed application of polyethylene glycol, J Exp Biol 205:1-12, both incorporated herein by reference.
[…] However, periodically physiological records were taken to monitor their status—and a final record at around 2 months post injury to confirm the chronic loss of ascending SSEP conduction through the mid-thoracic lesion.
After 8 weeks had elapsed and a “pre-drug application” electrical record obtained, the guinea pigs were lightly sedated and a test compound was administered directly into the stomach by a gastric tube (compounds were undissolved during introduction to the stomach, however, the gastric tube and any remnants of the compounds were flushed into the stomach by secondary introduction of less than 1 ml of distilled water). […]

[3] = system: fast potassium channels (IA) in guinea pig DRG cells; experiment: Whole cell patch-clamp recording of voltage-gated potassium currents (Itotal, fast component IA); format: cell-based; details: for effect on fast potassium current (initial peak of Itotal): 5 mM in bath solution; for peak (fast activated) potassium current amplitude after treatment: 5 mM in bath, command potential +30 mV
[4] = system: delayed rectifier current Idr in guinea pig DRG cells; experiment: Whole cell patch-clamp recording of isolated delayed rectifier current; format: cell-based; details: depolarization holding potential; data not shown
[5] = system: paralyzed persons with spinal cord injury; details: cited from earlier work

With `COC(=O)Nc1ccncc1` [methyl carbamate (3), N-(4-Pyridyl)Methyl Carbamate] the “enhancement of CAP conduction” value ([1]; 100 uM) was “enhanced CAP conduction significantly”, the “increase in the amplitude of the recovered CAP” value ([1]; 100 uM) was 30.6±11.7% and the “CAP amplitude after removal of the drug and wash” value [1] was “approximate pre-drug levels”. For the same compound, the “concentration producing recovery of CAP conduction (effective/working concentration)” value ([1]; listed as Methyl carbamate (3)) was “approximately 100 uM”, the “concentration producing recovery of CAP conduction (effective/working concentration)” value ([1]; listed as carbamate (3)) was 100 µM and the “cortical potential (P1) after administration” value ([2]; FIG. 3, 1 hour after gastric tube administration, 1 week post injury) was “nearly normal cortical potential”. The “effective dosage producing improvement in the electrophysiological record” value [2] was 0.37±0.2 mg/kg, the “Mean recovered EP (area beneath recovered EP normalized to pre-injury)” value [2] was 78.0 and the tolerability of gavage [2] was “uneventful”.
With `CC(C)(C)OC(=O)Nc1ccncc1` [t-butyl carbamate (1), N-(4-Pyridyl) t-Butyl Carbamate] the indication of toxicity [1] was “without any indication of toxicity”, the “enhancement of CAP conduction” value ([1]; 1 uM) was “enhance CAP conduction significantly” and the “CAP relative to pre-drug level” value [1] was “increase in CAP above the pre-drug level”. For the same compound, the “concentration producing recovery of CAP conduction (effective/working concentration)” value [1] was 1 µM, the “increase in recovery CAP amplitude” value ([1]; printed 'at uM', n=5, relative to pre-drug CAP) was 15.4±3.4% and the “recovery of EP compared to 4-AP” value ([2]; 1 week post injury) was “significantly enhanced”. For the same compound, the failures to respond [2] was “no failures to respond” and the tolerability of gavage [2] was “not tolerated”.
With `Nc1ccncc1CO` [4-AP-3-MeOH, 4-aminopyridine-3-methanol] the “increase of CAP conduction (not significant)” value ([1]; 0.01 μM, stretch-injured cord, mean±SE, n=5) was 6.44±3.8%, the “increase of CAP conduction” value ([1]; 0.1 μM, stretch-injured cord, mean±SE, n=7) was 12.73±3.2% and the “increase of CAP conduction” value ([1]; 1 μM, stretch-injured cord, mean±SE, n=6) was 11.27±4.2%. The “increase of CAP conduction” value ([1]; 10 μM, stretch-injured cord, mean±SE, n=11) was 13.35±5.9%, the “effect on CAP activation threshold” value ([1]; 100 μM, stimulus intensities 1.85 to 6.5 V) was “does not have a significant effect” and the “CAP conduction across stimulus intensities” value ([1]; 100 μM, stimulus intensities 1.85 to 6.5 V, data not shown) was “increased CAP conduction at all stimuli intensity levels”. The “increase of CAP conduction” value ([1]; 100 μM, stretch-injured cord, mean±SE, n=6) was 21.51±4.5%, the “increase of CAP conduction (not significant)” value ([1]; 1 mM, stretch-injured cord, mean±SE, n=5) was 6.72±8.3% and the “suppression of CAP conduction” value ([1]; 10 mM, stretch-injured cord, mean±SE, n=5) was 18.48±8.1%. The “effect on axonal response to dual or multiple stimuli” value ([1]; injured spinal cord tissue) was “does not have a significant effect”, the “effect on fast potassium current (initial peak of Itotal)” value [3] was “inhibit the fast potassium currents” and the “peak (fast activated) potassium current amplitude after treatment” value [3] was 2,434.20±543.4 pA. The “effect on IA over step voltage commands” value ([3]; step voltage commands from −50 to 40 mV) was “suppresses IA” and the “inhibition of Idr” value [4] was “did not significantly inhibit”.
For `CCOC(=O)Nc1ccncc1` [ethyl carbamate (2), N-(4-Pyridyl)Ethyl Carbamate], the indication of toxicity [1] was “without any indication of toxicity”, the “enhancement of CAP conduction” value ([1]; 100 uM) was “enhanced CAP conduction significantly” and the “recovery of CAP relative to 4-AP” value ([1]; 100 uM) was “slightly lower recovery of CAP than 4-AP”. For the same compound, the “increase in the amplitude of the recovered CAP” value ([1]; 100 uM) was 18.6±8.7%, the “CAP amplitude after removal of the drug and wash” value [1] was “fallen back to pre-drug levels” and the “increase in the amplitude of the CAP in example electrical record” value ([1]; FIG. 8 panel A, about 1/2 hour after addition) was about 20%. For the same compound, the “CAP relative to pre-drug level” value [1] was “increase in CAP above the pre-drug level”, the “concentration producing recovery of CAP conduction (effective/working concentration)” value [1] was “approximately 100 uM” and the “concentration producing recovery of CAP conduction (effective/working concentration)” value ([1]; listed as carbamate (2)) was 100 µM. The “recovery of EP compared to 4-AP” value ([2]; 1 week post injury) was “did not meet significance”, the failures to respond [2] was “no failures to respond” and the “Mean recovered EP (area beneath recovered EP normalized to pre-injury)” value [2] was 41.5. The tolerability of gavage [2] was “uneventful”.
In the case of `Nc1ccncc1` [4-AP, 4-aminopyridine, reference compound], the “concentration producing recovery of CAP conduction (effective/working concentration)” value [1] is reported as 100 µM, the “effect on fast potassium current (initial peak of Itotal)” value [3] is reported as “largely blocked” and the “peak (fast activated) potassium current amplitude after treatment” value [3] is reported as 2,574.91±446.8 pA. The “inhibition of Idr” value [4] was “did not significantly inhibit”, the “side effects at the concentrations required” value ([5]; human patients) was “numerous unwanted side effects” and the “share of treated population with clinically meaningful recoveries of function” value ([5]; paralyzed persons) was “about 30%”. The failures to respond [2] was “Two of the ten animals failed to respond”, the “effective dosage producing improvement in the electrophysiological record” value [2] was 0.47±0.04 mg/kg and the “Mean recovered EP (area beneath recovered EP normalized to pre-injury)” value [2] was 40.0. The tolerability of gavage [2] was “uneventful”.
